Values of other authors in article PMC4942611, “Promising Tools in Prostate Cancer Research: Selective Non-Steroidal Cytochrome P450 17A1 Inhibitors” (Scientific Reports, 2016).
Where two headings read alike, the source gives them in different places.

Tested on: CYP17A1
Parameters: method as in PMID 24775307
Conditions: cited from earlier work

CC(C)[C@](O)(c1ccc2cc(OC(F)F)c(OC(F)F)cc2c1)c1c[nH]nn1 [VT-464]
IC50 (read-out: IC50 hydroxylase step): 670 nM | IC50 (read-out: IC50 lyase step): 69 nM
